The subject of one test is E. coli ATCC 8739. The test is described as follows: In vivo antibiotic efficacy by ELLecSA in rats infected intraperitoneally. To be noted: for ELLecSA levels, increase over baseline (no antibiotic): rats, 2e9 CFU i.p., antibiotic 100 μg/kg at 4 hours, terminal blood draw 8 hours after infection; for ELLecSA signal in treated group vs sham treatment: wistar rats, treatment four hours after infection, blood draw after another four hours.

The subject of another test is E. cloacae. The test is described as follows: Antibiotic treatment of E. cloacae tracked by FcMBL ELLecSA detection of MAMPs. To be noted: for treatment efficacy from increase or spike in ELLecSA signal over time: 24-hr time course, E. cloacae 10e8 CFU/ml, 1 mg/ml antibiotic; for susceptibility of E. cloacae to the antibiotic: as stated for the test pathogen.
The test system of test [1] is clinical isolate of E. coli. The test is described as follows: Antibiotic treatment of clinical isolate of E. coli, MAMP detection by ELLecSA. Type of test: cell-based. To be noted: FIG. 16D strain. As to the method:
FIGS. 16A-16E show lysing microbes by antibiotic treatment to increase MAMPs for FcMBL-coated bead capture and ELLecSA detection. In FIG. 16A, FcMBL coated beads were used to detect the presence of MAMPs from a clinical isolate of Enterobacter cloacae after 4 hour treatments of cefepime and meropenem. Detection of MAMPs was done by ELLecSA using rhMBL-hrp. In FIG. 16B, FcMBL coated beads were used to detect the presence of MAMPs from a clinical isolate of Salmonella typhimurium after 4 hour treatments of cefepime. Detection of MAMPs was done by ELLecSA using rhMBL-hrp. In FIG. 16C, FcMBL coated beads were used to detect the presence of MAMPs from a clinical isolate of E. coli after 4 hour treatment of cefepime and amikacin. Detection of MAMPs was done by ELLecSA using rhMBL-hrp. In FIG. 16D, FcMBL coated beads were used to detect the presence of MAMPs from a clinical isolate of E. coli after 4 hour treatment of cefepime and amikacin. Detection of MAMP's was done by ELLecSA using rhMBL-hrp. […]. Time course antibiotics were administered. Optimal MAMP detection occurred at 4 hours with 100 ug/mL cefepime.

The subject of test [2] is amp-C mutant Enterobacter cloacae. The test is described as follows: Time course antibiotic treatment of amp-C mutant Enterobacter cloacae, MAMP detection by ELLecSA. The settings on record: 100 μg/mL antibiotic. Type of test: cell-based.

A value given as a limit tells only on which side of the number the result lay.

Consider `C[C@@H](O)[C@H]1C(=O)N2C(C(=O)O)=C(S[C@@H]3CN[C@H](C(=O)N(C)C)C3)[C@H](C)[C@H]12` [meropenem], for which, in the test with E. coli ATCC 8739, the “ELLecSA levels, increase over baseline (no antibiotic)” value is 2 fold and the “ELLecSA signal in treated group vs sham treatment” value is listed as “significant increase”.

In the case of `CO/N=C(\C(=O)N[C@@H]1C(=O)N2C(C(=O)O)=C(CSc3nc(=O)c(=O)[nH]n3C)CS[C@H]12)c1csc(N)n1` [ceftriaxone], in the test with E. cloacae, the “treatment efficacy from increase or spike in ELLecSA signal over time” value is given as “effective” and the “susceptibility of E. cloacae to the antibiotic” value (from here on “susceptibility of E. cloacae”) was “susceptible”. Further, in the test on E. cloacae (about 5e7 CFU Enterobacter cloacae), the “time to MAMP release after addition of the active antibiotic” value was not above 30 min.

`NCC[C@H](O)C(=O)N[C@@H]1C[C@H](N)[C@@H](O[C@H]2O[C@H](CN)[C@@H](O)[C@H](O)[C@H]2O)[C@H](O)[C@H]1O[C@H]1O[C@H](CO)[C@@H](O)[C@H](N)[C@H]1O` [amikacin]: the “susceptibility of the E. coli strain” value in test [1] is on record as “sensitive”.

For `Cc1nnc(SCC2=C(C(=O)O)N3C(=O)[C@@H](NC(=O)Cn4cnnn4)[C@H]3SC2)s1` [cefazolin], in the test on E. cloacae, the “treatment efficacy from increase or spike in ELLecSA signal over time” value is recorded as “ineffective” and the “susceptibility of E. cloacae” value is “resistant”.

With `CO/N=C(\C(=O)N[C@@H]1C(=O)N2C(C(=O)[O-])=C(C[N+]3(C)CCCC3)CS[C@H]12)c1csc(N)n1` [cefepime], in the test on E. coli ATCC 8739, the “ELLecSA levels, increase over baseline (no antibiotic)” value was “six” and the “ELLecSA signal in treated group vs sham treatment” value was “significant increase”. The “susceptibility of the E. coli strain” value in test [1] is reported as “intermediate susceptibility”.

Consider `CC(C)(O/N=C(\C(=O)N[C@@H]1C(=O)N2C(C(=O)[O-])=C(C[n+]3ccccc3)CS[C@H]12)c1csc(N)n1)C(=O)O` [ceftazidime], for which the “susceptibility of amp-C mutant E. cloacae” value in test [2] is recorded as “resistant”.

Turning to `CC(=O)OCC1=C(C(=O)O)N2C(=O)[C@@H](NC(=O)Cc3cccs3)[C@H]2SC1` [Cefalotin], in the test on E. cloacae, the “susceptibility of E. cloacae” value is “naturally resistant”.

Source of the values: US12553892B2, “Assays for antimicrobial activity and applications thereof” (PRESIDENT AND FELLOWS OF HARVARD COLLEGE, priority 2013, dated 2026).
